Measurements reported in BindingDB's records for patent US12065430 (Taiho Pharmaceutical, 2024).

Target: T1, Son of sevenless homolog 1 [564-1049]/GTPase KRas [G12C] (UniProt P01116+Q07889, G12C)
T1 construct: 564-1049
Assay: Evaluation of Inhibitory Activity of Compounds on KRAS G12C Nucleotide (GDP-GTP) Exchange Reaction
Description: The inhibitory activity of compounds on exchange reaction of GDP into GppNHp in Bodipy (trademark) FL-bound KRAS G12C was examined by fluorescence measurement using human recombinant KRAS G12C and SOS1 proteins.For the preparation of KRAS G12C to which Bodipy FL GDP was bound, first, […] KRAS G12C (amino acid region: 1-169) and 1 mM Bodipy FL GDP (Invitrogen, G22360) were incubated for 1 hour in a buffer (20 mM Tris-HCl (pH 7.5), 50 mM NaCl, 1 mM DTT) in ice in the presence of 2.5 mM EDTA. Thereafter, MgCl2 with a final concentration of 10 mM was added, and the mixture was incubated at room temperature for 30 minutes. The protein was allowed to pass through a NAP-5 column to remove free nucleotides and was used for compound evaluation.For the measurement of the inhibitory activity of compounds on nucleotide exchange reaction, first, the compound of the present invention was diluted stepwise with dimethyl sulfoxide (DMSO). Subsequently, a solution of the gradually diluted compound of the present invention in DMSO (the final concentration of DMSO: 5%) and KRAS G12C (25 nM) bound to Bodipy FL GDP were added to a reaction buffer (20 mM Tris-HCl (pH 7.5), 100 mM NaCl, 1 mM MgCl2, 2 mM DTT, 0.1% Tween20), followed by preincubation at 25° C. for 4 hours. Thereafter, Son of Sevenless Homolog 1 (SOS1, amino acid region: 564-1049) and GppNHp (GMPPNP, Jena Bioscience GmbH, NU-401-50) were added such that their final concentration was 100 nM and 1 μM respectively, followed by reaction for 30 minutes. The change in fluorescence intensity of Bodipy FL (excitation wavelength: 485 nm, fluorescence wavelength: 520 nm) immediately after the start of reaction and after 30 minutes from the start of reaction was standardized. The signal value for only DMSO was determined to be 0% inhibition, and the signal value for no addition of GppNHp was determined to be 100% inhibition. The compound concentration at which 50% inhibition is achieved was determined to be IC50 (nM), and was calculated.

T1 sequence (P01116 whole entry G12C): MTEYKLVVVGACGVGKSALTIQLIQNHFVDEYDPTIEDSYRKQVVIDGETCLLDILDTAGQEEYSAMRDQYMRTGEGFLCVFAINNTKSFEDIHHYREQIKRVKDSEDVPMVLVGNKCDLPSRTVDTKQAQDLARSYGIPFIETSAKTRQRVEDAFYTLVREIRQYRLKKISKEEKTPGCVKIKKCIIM
T1 sequence (Q07889 564-1049): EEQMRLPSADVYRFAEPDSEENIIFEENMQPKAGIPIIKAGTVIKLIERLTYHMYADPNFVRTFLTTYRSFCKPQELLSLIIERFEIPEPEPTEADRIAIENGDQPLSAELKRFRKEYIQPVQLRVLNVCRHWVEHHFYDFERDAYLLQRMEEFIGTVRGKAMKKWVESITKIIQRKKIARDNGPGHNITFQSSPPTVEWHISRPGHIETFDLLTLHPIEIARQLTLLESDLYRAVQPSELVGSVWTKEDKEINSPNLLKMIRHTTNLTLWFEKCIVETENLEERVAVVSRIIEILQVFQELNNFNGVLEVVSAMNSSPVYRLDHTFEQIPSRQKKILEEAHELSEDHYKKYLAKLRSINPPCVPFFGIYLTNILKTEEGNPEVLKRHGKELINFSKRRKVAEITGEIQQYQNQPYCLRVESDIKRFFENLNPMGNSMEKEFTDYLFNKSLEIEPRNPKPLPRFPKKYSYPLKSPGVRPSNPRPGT

Row | SMILES | IC50 [nM]
1 | C=CC(=O)N1CC(NC(=O)c2c(Cl)nc(CNc3n[nH]c4cc(Cl)c(C(C)(C)C)cc34)n2C2CN(C(=O)OC(C)(C)C)C2)C1 [US12065430, Example 106] | 8
2 | C=CC(=O)N1CC(NC(=O)c2c(Cl)nc(CNc3n[nH]c4cc(Cl)c(C(C)(C)C)cc34)n2[C@H]2C[C@H](C)CC[C@H]2C(C)C)C1 [US12065430, Example 111] | 15
3 | C=CC(=O)N1CC(NC(=O)c2c(Cl)nc(CNc3n[nH]c4cc(Cl)c(C(C)(C)C)cc34)n2[C@@H]2CCN(CCOC)C2)C1 [US12065430, Example 119] | 11
4 | C=CC(=O)N1CC(NC(=O)c2c(Cl)nc(CNc3n[nH]c4cc(Cl)c(C(C)(C)C)cc34)n2[C@@H]2CCN(Cc3ccccc3)C2)C1 [US12065430, Example 122] | 6
5 | C=CCN1CC[C@@H](n2c(CNc3n[nH]c4cc(Cl)c(C(C)(C)C)cc34)nc(Cl)c2C(=O)NC2CN(C(=O)C=C)C2)C1 [US12065430, Example 123] | 9
6 | C=CC(=O)N1CC(NC(=O)c2c(Cl)nc(CNc3n[nH]c4cc(Cl)c(C(C)(C)C)cc34)n2[C@@H]2CCN(c3ccccn3)C2)C1 [US12065430, Example 124] | 6
7 | C=CC(=O)N1CC(NC(=O)c2c(Cl)nc(CNc3n[nH]c4cc(Cl)c(C(C)(C)C)cc34)n2[C@@H]2CCN(CC(F)F)[C@H]2C)C1 [US12065430, Example 125] | 13
8 | C=CC(=O)N1CC(NC(=O)c2c(Cl)nc(CNc3n[nH]c4cc(Cl)c(C(C)(C)C)cc34)n2[C@@H]2C[C@@H](C)N(CC(F)F)C2)C1 [US12065430, Example 126] | 4

The remaining lines, values ahead:

Row | IC50 [nM] | SMILES
9 | 7 | C=CC(=O)N1CC(NC(=O)c2c(Cl)nc(CNc3n[nH]c4cc(Cl)c(C(C)(C)C)cc34)n2C2CCOCC2)C1 [US12065430, Example 101]
10 | 5 | C=CC(=O)N1CC(NC(=O)c2c(Cl)nc(CNc3n[nH]c4cc(Cl)c(C(C)(C)C)cc34)n2C2CCN(C)CC2)C1 [US12065430, Example 103]
11 | 9 | C=CC(=O)N1CC(NC(=O)c2c(Cl)nc(CNc3n[nH]c4cc(Cl)c(C(C)(C)C)cc34)n2C2CCCOC2)C1 (centres undefined) [US12065430, Example 104]
12 | 8 | C=CC(=O)N1CC(NC(=O)c2c(Cl)nc(CNc3n[nH]c4cc(Cl)c(C(C)(C)C)cc34)n2C2CCCC2)C1 [US12065430, Example 105]
13 | 9 | C=CC(=O)N1CC(NC(=O)c2c(Cl)nc(CNc3n[nH]c4cc(Cl)c(C(C)(C)C)cc34)n2C2CN(C(C)=O)C2)C1 [US12065430, Example 108]
14 | 23 | C=CC(=O)N1CC(NC(=O)c2c(Cl)nc(CNc3n[nH]c4cc(Cl)c(C(C)(C)C)cc34)n2C2CCCCC2)C1 [US12065430, Example 109]
15 | 9 | C=CC(=O)N1CC(NC(=O)c2c(Cl)nc(CNc3n[nH]c4cc(Cl)c(C(C)(C)C)cc34)n2CC2CCCC2)C1 [US12065430, Example 110]
16 | 9 | C=CC(=O)N1CC(NC(=O)c2c(Cl)nc(CNc3n[nH]c4cc(Cl)c(C(C)(C)C)cc34)n2C2CCCN(CC(F)F)C2)C1 (centres undefined) [US12065430, Example 117]
17 | 5 | C=CC(=O)N1CC(NC(=O)c2c(Cl)nc(CNc3n[nH]c4cc(Cl)c(C(C)(C)C)cc34)n2C2CCCN(C)C2)C1 (centres undefined) [US12065430, Example 118]
18 | 6 | C=CC(=O)N1CC(NC(=O)c2c(Cl)nc(CNc3n[nH]c4cc(Cl)c(C(C)(C)C)cc34)n2[C@@H]2CCN(C3CC3)C2)C1 [US12065430, Example 120]
19 | 5 | C=CC(=O)N1CC(NC(=O)c2c(Cl)nc(CNc3n[nH]c4cc(Cl)c(C(C)(C)C)cc34)n2[C@@H]2CCN(C3COC3)C2)C1 [US12065430, Example 121]
